From paper PMC6643297 (Cell metabolism, 2018) come the findings set out here.

The target in assay [1] is ACC2 (acetyl-CoA carboxylase 2) (Homo sapiens, UniProt O00763). As to the kind of experiment: ACC2 enzyme inhibition assay. The assay is classed as biochemical.
In assay [2] the target is ACC1 (acetyl-CoA carboxylase 1) (Homo sapiens, UniProt Q13085). Put plainly: ACC1 enzyme inhibition assay. The class given is biochemical.

ACC2 (acetyl-CoA carboxylase 2), sequence (O00763 whole entry): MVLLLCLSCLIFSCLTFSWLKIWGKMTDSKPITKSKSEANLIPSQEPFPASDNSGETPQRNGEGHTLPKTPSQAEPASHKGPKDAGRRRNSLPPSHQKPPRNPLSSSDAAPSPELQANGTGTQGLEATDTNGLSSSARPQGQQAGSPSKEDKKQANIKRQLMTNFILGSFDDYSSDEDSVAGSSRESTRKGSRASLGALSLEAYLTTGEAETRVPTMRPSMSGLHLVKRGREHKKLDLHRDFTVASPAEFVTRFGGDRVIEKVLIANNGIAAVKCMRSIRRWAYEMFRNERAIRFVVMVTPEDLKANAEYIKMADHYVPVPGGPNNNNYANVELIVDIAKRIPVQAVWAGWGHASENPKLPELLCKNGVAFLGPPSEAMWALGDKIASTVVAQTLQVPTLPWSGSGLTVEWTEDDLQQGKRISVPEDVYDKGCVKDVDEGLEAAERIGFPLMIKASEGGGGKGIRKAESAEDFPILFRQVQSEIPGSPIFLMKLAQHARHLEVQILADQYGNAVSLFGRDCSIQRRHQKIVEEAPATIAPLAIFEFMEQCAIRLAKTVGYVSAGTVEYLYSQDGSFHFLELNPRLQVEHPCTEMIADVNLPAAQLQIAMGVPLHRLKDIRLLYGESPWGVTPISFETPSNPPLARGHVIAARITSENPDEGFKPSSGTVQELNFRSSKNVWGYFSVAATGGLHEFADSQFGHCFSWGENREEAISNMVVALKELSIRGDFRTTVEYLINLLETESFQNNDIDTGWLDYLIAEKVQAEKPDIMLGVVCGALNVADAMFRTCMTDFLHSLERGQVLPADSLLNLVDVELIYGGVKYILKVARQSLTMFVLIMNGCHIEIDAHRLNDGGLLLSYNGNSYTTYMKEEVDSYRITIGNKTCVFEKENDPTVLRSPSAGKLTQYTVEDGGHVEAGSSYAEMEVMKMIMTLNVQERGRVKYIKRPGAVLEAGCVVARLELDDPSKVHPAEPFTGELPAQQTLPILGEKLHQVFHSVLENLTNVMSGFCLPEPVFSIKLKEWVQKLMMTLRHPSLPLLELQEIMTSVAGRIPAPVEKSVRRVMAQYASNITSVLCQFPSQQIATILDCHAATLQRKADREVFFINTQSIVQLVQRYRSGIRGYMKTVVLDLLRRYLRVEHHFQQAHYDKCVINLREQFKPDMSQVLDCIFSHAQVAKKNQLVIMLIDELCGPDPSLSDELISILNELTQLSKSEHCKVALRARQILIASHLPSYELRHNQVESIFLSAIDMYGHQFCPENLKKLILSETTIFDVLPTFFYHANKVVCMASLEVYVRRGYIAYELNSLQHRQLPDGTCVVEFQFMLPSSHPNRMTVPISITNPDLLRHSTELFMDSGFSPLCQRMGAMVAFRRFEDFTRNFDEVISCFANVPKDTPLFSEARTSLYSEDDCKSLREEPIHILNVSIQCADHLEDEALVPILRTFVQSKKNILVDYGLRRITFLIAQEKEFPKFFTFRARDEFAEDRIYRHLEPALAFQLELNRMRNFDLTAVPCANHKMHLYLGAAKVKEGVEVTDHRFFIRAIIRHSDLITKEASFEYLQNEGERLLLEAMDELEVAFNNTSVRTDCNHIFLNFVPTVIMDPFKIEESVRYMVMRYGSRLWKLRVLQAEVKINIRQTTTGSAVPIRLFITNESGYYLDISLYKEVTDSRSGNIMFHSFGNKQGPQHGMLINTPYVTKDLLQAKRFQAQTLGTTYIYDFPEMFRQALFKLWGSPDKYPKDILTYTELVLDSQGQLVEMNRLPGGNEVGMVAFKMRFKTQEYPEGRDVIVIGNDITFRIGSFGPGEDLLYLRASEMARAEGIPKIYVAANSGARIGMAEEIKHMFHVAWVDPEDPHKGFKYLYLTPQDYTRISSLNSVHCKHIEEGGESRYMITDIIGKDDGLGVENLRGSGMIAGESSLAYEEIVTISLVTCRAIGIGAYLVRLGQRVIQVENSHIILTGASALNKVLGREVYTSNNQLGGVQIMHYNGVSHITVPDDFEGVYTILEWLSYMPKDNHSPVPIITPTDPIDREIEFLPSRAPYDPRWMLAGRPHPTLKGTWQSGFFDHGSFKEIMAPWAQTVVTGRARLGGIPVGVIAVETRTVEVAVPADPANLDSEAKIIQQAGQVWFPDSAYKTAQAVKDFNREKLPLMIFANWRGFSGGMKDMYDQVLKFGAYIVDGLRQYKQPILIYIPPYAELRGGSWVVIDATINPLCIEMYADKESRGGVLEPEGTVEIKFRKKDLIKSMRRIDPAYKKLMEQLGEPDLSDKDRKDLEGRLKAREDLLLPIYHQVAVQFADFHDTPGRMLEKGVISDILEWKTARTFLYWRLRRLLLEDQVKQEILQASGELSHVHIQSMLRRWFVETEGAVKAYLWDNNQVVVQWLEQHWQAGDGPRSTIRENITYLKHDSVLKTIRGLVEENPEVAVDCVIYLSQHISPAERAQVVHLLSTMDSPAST

A word on the IC50: it is the concentration that gives 50% inhibition. Low values mean higher potency, high ones lower potency. Turning to ND-654, the results for the IC50 in assay [1] and in assay [2] were 8 nM and 3 nM, respectively.
